Measurements: ChEMBL document CHEMBL1156403, “A new dimeric dihydrochalcone and a new prenylated flavone from the bud covers of Artocarpus altilis: potent inhibitors of cathepsin K” (J Nat Prod, 2002)

What follows are molecules tested against T1, Cathepsin K (Homo sapiens, UniProt P43235) (assay: Inhibition of cathepsin K by fluorimetric assay).
T1 sequence (P43235 whole entry): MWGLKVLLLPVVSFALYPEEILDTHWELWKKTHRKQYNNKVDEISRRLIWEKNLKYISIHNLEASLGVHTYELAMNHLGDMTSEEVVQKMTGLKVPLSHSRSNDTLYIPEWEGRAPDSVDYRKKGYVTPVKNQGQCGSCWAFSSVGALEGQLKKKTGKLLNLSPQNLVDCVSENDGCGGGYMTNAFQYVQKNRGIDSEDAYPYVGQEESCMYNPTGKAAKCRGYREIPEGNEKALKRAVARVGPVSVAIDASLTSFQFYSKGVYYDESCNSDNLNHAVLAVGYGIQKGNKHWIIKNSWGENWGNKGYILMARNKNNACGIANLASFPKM
`CC(C)=CCC/C(C)=C/Cc1c(CCC(=O)c2ccc(O)cc2O)ccc(O)c1O` gave an IC50 of 170 nM. Work on `CC(C)=CCC/C(C)=C/Cc1c(CCC(=O)c2ccc(O)cc2O)cc(-c2cc(O)c(O)c(C/C=C(\C)CCC=C(C)C)c2CCC(=O)c2ccc(O)cc2O)c(O)c1O` [CYCLOALTILISIN 6] yielded an IC50 of 98 nM. `CC(C)=CCCC1(C)C=Cc2c(cc(O)c3c2OC(c2ccc(O)cc2)CC3=O)O1` (stereo not drawn) [CYCLOALTILISIN 7] gave an IC50 of 840 nM.
